One test concerns the target T1, KAT6B (Homo sapiens, UniProt Q8WYB5).
T1 construct: purchased Active Motif 81224
The test can be described thus: KATs acetyltransferase enzyme activity assay (TR-FRET), KAT6B. It counts as biochemical. The note with it: Biotin-H3 (1-21) and AcCOA, 90 minutes at room temperature. The protocol: (§1) I. KATs acetyltransferase enzyme activity assay
(§2) • 1. The inhibitory effect of compounds on the acetyltransferase activity of KATs was evaluated using the Time-Resolved Fluorescence Resonance Energy Transfer (TR-FRET) assay. The assay was conducted in 384-well plates using Tris-HCl buffer. • 2. Compounds were diluted in DMSO and transferred to 384-well plates. Enzyme solutions (KAT6: active motif (kit), 81223; KAT6B: active motif, 81224; KAT5: SignalChem, K314-380G; KAT7: ICE, S2210F-H21HF; KAT8: Active motif, 81225) were added and the mixture was incubated at room temperature for 15 minutes. • 3. Subsequently, 2.5 µL of a mixture containing KAT6A/KAT6B: Biotin-H3 (1-21, Genscript, C6829GL060) or KAT5/7/8: Bio-H4 (1-25, Genscript, C736BGL100) AcCOA (Sigma, A2056) was added, and the reaction proceeded at room temperature for 90 minutes. • 4. After the reaction, a detection mixture containing Europium-anti-acetyl-Histone H4 Lysine (H4Kac pan) Antibody (Perkin Elmer, TRF0412) and LANCE Ultra ULight™-Streptavidin in LANCE™ Detection buffer (10x) (Perkin Elmer, CR97-100) was added, followed by incubation at room temperature for 60 minutes. • 5. HTRF signals were measured using a BMG PHERAstar FSX (Ratio: 665nm/620nm). IC50 values were calculated by nonlinear regression using a four-parameter logistic equation in GraphPad Prism 8 software.
(In general: TR-FRET usually uses a lanthanide donor and a delayed reading to cut background.)

Another test deals with ZR-75-1 cells. The test can be described thus: ZR-75-1 cell proliferation assay (CellTiter-Glo). It counts as cell-based. The following applies: Homo sapiens, ZR-75-1, 240 h, total culture period of 10 days, read-out: ZR-75-1 Proliferation Inhibition IC50. The procedure:
II. ZR-75-1 cell proliferation assay
• 1. ZR-75-1 cells were seeded in 96-well plates and cultured overnight in an incubator at 37°C & 5% CO2. • 2. Compounds were diluted using culture medium and added to the 96-well plates. The plates were placed back into the incubator for continued culture. Every 5 days, the cells were trypsinized, counted, and re-seeded. After the cells had fully adhered, compounds were added again for incubation, for a total culture period of 10 days. • 3. After the culture period, 60 µL of CellTiter-Glo reagent (Promega, G7573) was added to each well. The plates were protected from light and shaken for 2 minutes to lyse the cells, followed by further incubation at room temperature, protected from light, for 30 minutes. • 4. Luminescence signals were read using a BMG PHERAstar FSX. IC50 values were calculated by nonlinear regression using a four-parameter logistic equation in GraphPad Prism 8 software.

The next test addresses T2, KAT6A (Homo sapiens, UniProt Q92794).
T2 construct: purchased Active Motif 81223
The test can be described thus: KATs acetyltransferase enzyme activity assay (TR-FRET), KAT6A. It is filed as biochemical. The note with it: Biotin-H3 (1-21) and AcCOA, 90 minutes at room temperature. The protocol:
as §1
as §2, with “Enzyme solutions (KAT6: active motif (kit), 81223; KAT6B: active motif, 81224; KAT5: SignalChem, K314-380G; KAT7: ICE, S2210F-H21HF; KAT8: Active motif, 81225) were added and the mixture was incubated at room temperature for 15 minutes. • 3.” left out, “HTRF signals were measured using a BMG PHERAstar FSX (Ratio: 665nm/620nm).” left out

For test [1], the system named is ZR-75-1 H3K23 Acetylation. The test is described as follows: Histone H3 acetylation assay (H3K23 acetylation in ZR-75-1 cells). It is filed as cell-based. The following applies: Homo sapiens, 72 hours incubation, Odyssey CLx fluorescence, read-out: ZR-75-1 H3K23 Acetylation Inhibition IC50. The procedure: III. Histone H3 acetylation assay
• 1. ZR-75-1 cells were seeded at 5000 cells/40 µL per well in 384-well plates and cultured overnight in an incubator at 37°C & 5% CO2. • 2. 40 nL of serially diluted compounds were added to the 384-well plates, followed by further incubation for 72 hours. • 3. The supernatant was discarded, and 8 w/v% paraformaldehyde (final concentration was 4 w/v%) was added directly to the wells to fix the cells at room temperature. • 4. After washing twice with PBS, a permeabilization agent (40 µL of methanol) was added and incubated for 10 minutes to permeabilize the cell membranes. • 5. After washing twice with PBS, a blocking buffer was added and incubated at room temperature for 1 hour for blocking. • 6. The blocking buffer was discarded, and 20 µL of primary antibodies (recombinant Anti-Histone H3 (acetyl K23) antibody and Anti-Histone H4 antibody) diluted in blocking buffer (1:1000 by volume dilution) were added, followed by incubation at 4°C overnight. • 7. After washing three times with PBST (0.05 vol% Tween-20 in PBS), 20 µL of fluorescent secondary antibodies (IRDye 680RD Goat anti-MOUSE, Licor, 926-68070; IRDye 800CW Goat anti-Rabbit, Licor, 926-32211) diluted in blocking buffer (1:2000 by volume dilution) were added, followed by incubation at room temperature, protected from light, for 1 hour. Then, the plates were washed three times with PBST. • 8. Scanning was performed using an Odyssey CLx, and the fluorescence signal value for each well was quantified. IC50 values were calculated by nonlinear regression using a four-parameter logistic equation in GraphPad Prism 8 software.

Structures are written as SMILES.

T2 sequence (Q92794 488-778 limits assumed): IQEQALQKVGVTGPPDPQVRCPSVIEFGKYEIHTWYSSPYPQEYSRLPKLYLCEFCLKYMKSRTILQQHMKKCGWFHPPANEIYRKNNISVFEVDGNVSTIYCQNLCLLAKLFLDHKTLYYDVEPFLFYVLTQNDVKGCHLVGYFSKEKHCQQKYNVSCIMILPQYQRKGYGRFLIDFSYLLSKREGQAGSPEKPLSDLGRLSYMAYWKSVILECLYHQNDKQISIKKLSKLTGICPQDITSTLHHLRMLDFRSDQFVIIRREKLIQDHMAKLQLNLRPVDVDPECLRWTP
T1 sequence (Q8WYB5 whole entry): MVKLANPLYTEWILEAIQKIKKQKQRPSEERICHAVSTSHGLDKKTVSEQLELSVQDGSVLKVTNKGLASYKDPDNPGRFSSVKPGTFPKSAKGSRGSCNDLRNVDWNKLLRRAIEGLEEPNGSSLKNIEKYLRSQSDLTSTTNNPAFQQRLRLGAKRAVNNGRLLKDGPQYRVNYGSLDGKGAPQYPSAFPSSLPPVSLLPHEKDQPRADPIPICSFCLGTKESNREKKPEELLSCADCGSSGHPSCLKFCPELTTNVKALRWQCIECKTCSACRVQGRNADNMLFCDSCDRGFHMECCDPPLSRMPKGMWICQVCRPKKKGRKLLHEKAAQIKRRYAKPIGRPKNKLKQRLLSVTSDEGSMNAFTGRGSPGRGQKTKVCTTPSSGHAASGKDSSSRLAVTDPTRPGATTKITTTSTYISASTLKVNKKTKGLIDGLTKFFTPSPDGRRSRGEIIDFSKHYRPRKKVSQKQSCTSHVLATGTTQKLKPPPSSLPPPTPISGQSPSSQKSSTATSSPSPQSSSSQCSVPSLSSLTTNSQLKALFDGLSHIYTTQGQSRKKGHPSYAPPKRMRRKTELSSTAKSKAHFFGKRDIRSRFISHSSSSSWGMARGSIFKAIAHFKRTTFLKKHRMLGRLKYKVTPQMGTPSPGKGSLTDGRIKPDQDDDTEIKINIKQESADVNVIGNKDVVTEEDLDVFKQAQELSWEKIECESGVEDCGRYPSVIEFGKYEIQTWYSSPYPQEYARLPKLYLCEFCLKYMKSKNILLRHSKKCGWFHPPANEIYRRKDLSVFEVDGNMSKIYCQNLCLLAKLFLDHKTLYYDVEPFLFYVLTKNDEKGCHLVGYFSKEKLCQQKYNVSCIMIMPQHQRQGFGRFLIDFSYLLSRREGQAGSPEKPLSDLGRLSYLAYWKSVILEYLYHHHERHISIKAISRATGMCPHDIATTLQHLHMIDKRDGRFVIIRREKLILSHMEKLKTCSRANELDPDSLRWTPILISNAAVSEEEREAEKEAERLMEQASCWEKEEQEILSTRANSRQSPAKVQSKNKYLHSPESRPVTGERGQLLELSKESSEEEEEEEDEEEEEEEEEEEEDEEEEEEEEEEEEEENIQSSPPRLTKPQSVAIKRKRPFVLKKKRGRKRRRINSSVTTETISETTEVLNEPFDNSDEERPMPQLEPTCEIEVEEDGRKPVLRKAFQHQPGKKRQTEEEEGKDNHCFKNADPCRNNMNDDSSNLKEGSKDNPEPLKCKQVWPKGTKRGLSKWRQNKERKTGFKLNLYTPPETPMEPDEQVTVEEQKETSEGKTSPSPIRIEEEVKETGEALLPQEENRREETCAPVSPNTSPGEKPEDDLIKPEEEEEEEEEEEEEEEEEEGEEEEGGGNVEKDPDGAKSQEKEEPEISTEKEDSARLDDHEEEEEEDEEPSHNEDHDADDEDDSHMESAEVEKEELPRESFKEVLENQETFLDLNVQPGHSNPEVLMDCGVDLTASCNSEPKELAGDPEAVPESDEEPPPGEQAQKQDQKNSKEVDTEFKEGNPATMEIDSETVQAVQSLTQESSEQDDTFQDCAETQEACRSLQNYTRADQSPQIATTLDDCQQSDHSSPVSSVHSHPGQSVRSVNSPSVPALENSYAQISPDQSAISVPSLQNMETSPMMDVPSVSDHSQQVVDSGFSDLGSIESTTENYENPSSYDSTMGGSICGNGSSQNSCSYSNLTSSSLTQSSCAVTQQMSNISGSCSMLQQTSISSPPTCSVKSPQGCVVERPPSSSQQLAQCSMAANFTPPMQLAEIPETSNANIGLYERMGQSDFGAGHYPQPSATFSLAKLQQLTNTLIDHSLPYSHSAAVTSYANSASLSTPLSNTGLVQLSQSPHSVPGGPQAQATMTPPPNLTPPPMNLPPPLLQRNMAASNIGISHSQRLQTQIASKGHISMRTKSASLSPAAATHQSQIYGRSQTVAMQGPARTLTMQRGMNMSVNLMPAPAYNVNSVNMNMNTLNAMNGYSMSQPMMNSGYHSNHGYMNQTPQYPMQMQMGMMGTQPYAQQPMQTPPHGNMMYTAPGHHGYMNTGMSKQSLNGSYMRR

In the case of `COc1cc2c(cc1S(=O)(=O)Nc1noc3cc(Cn4cccn4)cc(OC)c13)C1CC1CO2` (stereo not drawn) [Compound 6, N-(6-((1H-Pyrazol-1-yl)methyl)-4-methoxybenzo[d]isoxazol-3-yl)-5-methoxy-1,1a,2,7b-tetrahydrocyclopropa[c] chromene-6-sulfonamide], the IC50 against KAT6B was 11.8 nM; in the test with ZR-75-1 cells, 0.6 nM; at KAT6A, 1.3 nM; in test [1] it was 5.3 nM.

Turning to `COc1ccc2c(c1S(=O)(=O)Nc1noc3cc(Cn4cccn4)c(OC)c(C)c13)OCC1CC21` (stereo not drawn) [Compound 40, N-(6-((1H-Pyrazol-1-yl)methyl)-5-methoxy-4-methylbenzo[d]isoxazol-3-yl)-5-methoxy-1,1a,2,7b-tetrahydrocyclopropa[c]chromene-4-sulfonamide], the IC50 against KAT6B was found to be 12.9 nM; with ZR-75-1 cells it was 1.6 nM; on KAT6A it was 1.7 nM; in test [1], 12.4 nM.

As for `COc1cc2c(cc1S(=O)(=O)Nc1noc3cc(Cn4cccn4)cc(OC)c13)OCCCO2` [Compound 7, N-(6-((1H-Pyrazol-1-yl)methyl)-4-methoxybenzo[d]isoxazol-3-yl)-8-methoxy-3,4-dihyd ro-2H-benzo[b][1,4]dioxepine-7-sulfonamide], the IC50 against KAT6B is 19.2 nM; in the test with ZR-75-1 cells, 2.4 nM; against KAT6A, 2.7 nM; in test [1], 8.6 nM.

In the case of `CCc1c(Cn2cccn2)cc2onc(NS(=O)(=O)c3c(OC)ccc4c3OCC43CC3)c2c1OC` [Compound 28, N-(6-((1H-Pyrazol-1-yl)methyl)-5-ethyl-4-methoxybenzo[d]isoxazol-3-yl)-6-methoxy-2 H-spiro[benzofuran-3,1'-cyclopropane]-7-sulfonamide], the IC50 was determined as 12.3 nM against KAT6B, 16.6 nM with ZR-75-1 cells, 2.2 nM against KAT6A and 37.7 nM in test [1].

`COc1cc2c(NS(=O)(=O)c3c(OC)ccc4c3OCC3CC43)noc2cc1Cn1cccn1` (single isomer, unassigned) [Compound 33]: the IC50 against KAT6B came to 1.2 nM; in the test with ZR-75-1 cells, 0.03 nM; against KAT6A, 1.1 nM; in test [1], 0.2 nM.

Turning to `COc1ccc2c(c1S(=O)(=O)Nc1noc3cc(Cn4cccn4)c4c(c13)OCC4)OCC21CC1` [Compound 36, N-(4-((1H-Pyrazol-1-yl)methyl)-2,3-dihydrobenzofuro[7,6-d]isoxazol-8-yl)-6-methoxy-2H-spiro[benzofuran-3,1'-cyclopropane]-7-sulfonamide], the IC50 amounted to 8 nM at KAT6B, 0.4 nM with ZR-75-1 cells, 1.7 nM at KAT6A and 3.7 nM in test [1].

Regarding `COc1cc2c(NS(=O)(=O)c3c(OC)ccc4c3OCCCO4)noc2cc1Cn1cccn1` [Compound 15, N-(6-((1H-Pyrazol-1-yl)methyl)-5-methoxybenzo[d]isoxazol-3-yl)-7-methoxy-3,4-dihyd ro-2H-benzo[b][1,4] dioxepine-6-sulfonamide], the IC50 against KAT6B was determined as 9.3 nM; in the test with ZR-75-1 cells, 0.6 nM; at KAT6A it was 1.7 nM; in test [1] it was 1.1 nM.

With `COc1ccc2c(c1S(=O)(=O)Nc1noc3cc(Cn4cccn4)c(F)c(OC)c13)OCC21CC1` [Compound 31, N-(6-((1H-Pyrazol-1-yl)methyl)-5-fluoro-4-methoxybenzo[d]isoxazol-3-yl)-6-methoxy-2H-spiro[benzofuran-3,1'-cyclopropane]-7-sulfonamide], the IC50 on KAT6B turned out to be 2.7 nM; in the test on ZR-75-1 cells, 0.3 nM; against KAT6A, 1.3 nM; in test [1], 1.1 nM.

`COc1cc(Cn2cccn2)cc2onc(NS(=O)(=O)c3cccc4c3OCCCO4)c12` [Compound 1, N-(6-((1H-Pyrazol-1-yl)methyl)-4-methoxybenzo[d]isoxazol-3-yl)-3,4-dihydro-2H-benz o[b] [1,4]dioxepine-6-sulfonamide]: the IC50 worked out at 81.7 nM on KAT6B, 6.7 nM in the test with ZR-75-1 cells, 12.9 nM at KAT6A and 9 nM in test [1].

For the compound `COc1ccc2c(c1S(=O)(=O)Nc1noc3cc(Cn4cccn4)c(OC(F)F)cc13)OCCCO2` [Compound 13, N-(6-((1H-pyrazol-1-yl)methyl)-5-(difluoromethoxy)benzo[d]isoxazol-3-yl)-7-methoxy-3,4-dihydro-2H-benzo [b] [1,4] dioxepine-6-sulfonamide], the results for the IC50 (in the test on ZR-75-1 cells; in test [1]) were 14.2 nM and 34.3 nM, respectively.

`COc1ccc2c(c1S(=O)(=O)Nc1noc3cc(Cn4cccn4)c4c(c13)OCC4)OCCCO2` [Compound 35, N-(4-((1H-Pyrazol-1-yl)methyl)-2,3-dihydrobenzofuro[7,6-d]isoxazol-8-yl)-7-methoxy-3,4-dihydro-2H-benzo[b][1,4]dioxepine-6-sulfonamide]: the IC50 against KAT6B is 45.9 nM; with ZR-75-1 cells, 3.3 nM; at KAT6A it was 4.3 nM; in test [1], 15 nM.

For `COc1ccc2c(c1S(=O)(=O)Nc1noc3cc(Cn4cccn4)cc(OC)c13)OCC(F)(F)CO2` [Compound 11, N-(6-((1H-Pyrazol-1-yl)methyl)-4-methoxybenzo[d]isoxazol-3-yl)-3,3-difluoro-7-methoxy-3,4-dihydro-2H-benzo[b] [1,4]dioxepine-6-sulfonamide], the figures for the IC50 (against KAT6B; against KAT6A; in test [1]) were 46.8 nM, 2.5 nM and 12.7 nM, respectively.

For `COc1ccc2c(c1S(=O)(=O)Nc1noc3cc(Oc4nccs4)cc(OC)c13)OC[C@@H]1C[C@H]21` [Compound 47, (1aR,7bS)-5-Methoxy-N-(4-methoxy-6-(thiazol-2-yloxy)benzo[d]isoxazol-3-yl)-1,1a,2,7 b-tetrahydrocyclopropa[c]chromene-4-sulfonamide], the IC50 was 1.5 nM against KAT6B, 0.8 nM against KAT6A and 3.4 nM in test [1].

For `COc1ccc2c(c1S(=O)(=O)Nc1noc3cc(Cn4cccn4)cc(OC)c13)OC1CC1O2` (stereo not drawn) [Compound 50, N-(6-((1H-Pyrazol-1-yl)methyl)-4-methoxybenzo[d]isoxazol-3-yl)-4-methoxy-1a,7a-dihydro-1H-benzo[b]cyclopropa[e][1,4]dioxine-3-sulfonamide], the IC50 is 51.6 nM against KAT6B, 6.8 nM at KAT6A and 6.5 nM in test [1].

Source of the values: EP4741389A1, “KAT6 INHIBITOR” (Shanghai Qilu Pharmaceutical Research and Development …, priority 2023, dated 2025).
